Results: US10689362B2, “Quinoxaline compounds as type III receptor tyrosine kinase inhibitors” (Development Center for Biotechnology, priority 2016, dated 2020)

Legend:
CSF-1R kinase = CSF-1R kinase (Homo sapiens (Human), UniProt P07333); assay: CSF-1R kinase assay (AlphaScreen); type: biochemical
Description: Inhibition of CSF-1R kinase activity by a test compound disclosed herein was estimated by AlphaScreen (PerkinElmer). […] Reactions were incubated at 30° C. for 45 min and stopped by adding 5 μL of 50 mM EDTA. Analysis of resulting product using an AlphaScreen kit, and counted with Enspire Alpha (PerkinElmer). […] The IC50 values of quinoxaline compounds of this invention against CSF-1R kinase were determined using the GraphPad Prism 5 software.

c-KIT kinase = c-KIT kinase (Homo sapiens (Human), UniProt P10721); assay: c-KIT kinase assay (radiometric); type: biochemical
Sequence of c-KIT kinase (P10721 26-976): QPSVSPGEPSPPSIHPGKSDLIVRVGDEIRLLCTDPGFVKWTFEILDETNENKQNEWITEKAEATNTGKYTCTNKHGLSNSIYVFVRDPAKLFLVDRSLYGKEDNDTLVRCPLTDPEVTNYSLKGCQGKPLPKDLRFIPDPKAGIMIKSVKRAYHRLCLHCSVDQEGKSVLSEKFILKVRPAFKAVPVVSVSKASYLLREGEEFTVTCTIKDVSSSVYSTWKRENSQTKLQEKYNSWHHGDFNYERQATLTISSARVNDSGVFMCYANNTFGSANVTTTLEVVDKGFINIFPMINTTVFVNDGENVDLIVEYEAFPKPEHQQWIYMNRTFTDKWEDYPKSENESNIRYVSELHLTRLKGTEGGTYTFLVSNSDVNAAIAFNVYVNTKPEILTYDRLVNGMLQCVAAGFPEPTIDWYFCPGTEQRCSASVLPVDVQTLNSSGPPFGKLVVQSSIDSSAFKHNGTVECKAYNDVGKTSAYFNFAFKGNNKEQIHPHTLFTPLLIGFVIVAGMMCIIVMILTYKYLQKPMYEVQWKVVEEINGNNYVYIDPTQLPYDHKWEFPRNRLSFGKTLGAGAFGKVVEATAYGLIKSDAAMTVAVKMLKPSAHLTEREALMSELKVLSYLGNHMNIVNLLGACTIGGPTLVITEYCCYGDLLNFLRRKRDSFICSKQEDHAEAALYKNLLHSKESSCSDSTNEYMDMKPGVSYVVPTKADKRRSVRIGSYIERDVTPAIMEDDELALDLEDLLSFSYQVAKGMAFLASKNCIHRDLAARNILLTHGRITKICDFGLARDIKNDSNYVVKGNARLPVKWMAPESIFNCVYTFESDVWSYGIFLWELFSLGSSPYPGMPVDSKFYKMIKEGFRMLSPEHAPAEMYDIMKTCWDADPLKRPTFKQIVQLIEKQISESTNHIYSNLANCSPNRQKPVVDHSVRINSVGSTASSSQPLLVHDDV
Procedure, shortened: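 Recombinant c-Kit (20 ng) with 2 μg Poly-(Glu4:Tyr1) in MOPS pH 7.0 buffer with MgCl2/MnCl2, 10 μM ATP plus [^33P]-ATP, 4% DMSO final, 60 min at 30° C. Stopped with phosphoric acid, filter-captured and scintillation counted; IC50 from curve fit.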

FLT3 kinase = FLT3 kinase (Homo sapiens (Human), UniProt P36888); assay: FLT3 kinase assay (radiometric); type: biochemical; details: bound
Sequence of FLT3 kinase (P36888 27-993): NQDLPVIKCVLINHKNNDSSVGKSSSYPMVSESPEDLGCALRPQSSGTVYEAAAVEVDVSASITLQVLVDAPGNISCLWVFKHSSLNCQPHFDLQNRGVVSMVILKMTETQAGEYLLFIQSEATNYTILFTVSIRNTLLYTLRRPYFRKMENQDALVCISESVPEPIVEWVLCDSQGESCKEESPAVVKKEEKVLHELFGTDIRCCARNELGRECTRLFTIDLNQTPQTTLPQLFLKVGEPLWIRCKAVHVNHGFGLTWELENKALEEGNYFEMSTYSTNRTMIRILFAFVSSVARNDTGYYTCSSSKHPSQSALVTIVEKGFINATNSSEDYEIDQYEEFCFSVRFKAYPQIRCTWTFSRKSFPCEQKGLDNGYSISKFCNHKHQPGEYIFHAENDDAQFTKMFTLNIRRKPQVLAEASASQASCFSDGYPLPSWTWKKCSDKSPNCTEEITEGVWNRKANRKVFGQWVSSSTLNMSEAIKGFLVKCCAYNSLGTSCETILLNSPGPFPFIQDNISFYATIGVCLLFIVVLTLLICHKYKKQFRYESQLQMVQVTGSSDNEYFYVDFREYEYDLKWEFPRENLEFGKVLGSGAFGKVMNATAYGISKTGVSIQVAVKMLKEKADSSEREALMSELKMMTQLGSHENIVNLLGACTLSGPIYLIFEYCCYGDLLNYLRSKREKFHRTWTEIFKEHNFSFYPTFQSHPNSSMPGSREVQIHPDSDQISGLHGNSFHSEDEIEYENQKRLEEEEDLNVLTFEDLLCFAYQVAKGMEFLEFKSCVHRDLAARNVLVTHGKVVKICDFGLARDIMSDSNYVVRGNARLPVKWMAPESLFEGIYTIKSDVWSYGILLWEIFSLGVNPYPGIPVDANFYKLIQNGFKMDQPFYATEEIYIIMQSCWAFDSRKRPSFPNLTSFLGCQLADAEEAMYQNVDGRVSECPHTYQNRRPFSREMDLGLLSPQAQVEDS
Procedure, shortened: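 Recombinant FLT3 (5 ng) phosphorylating poly(Glu4:Tyr1) (2 μg) with 10 μM ATP plus [^33P]-ATP in MOPS pH 7.0 buffer, 4% DMSO final, 60 min at 30° C. Reaction stopped with phosphoric acid, filter-captured and scintillation-counted; IC50 derived from dose-response.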

PDGFRβ kinase = PDGFRβ kinase (Homo sapiens (Human), UniProt P09619); assay: PDGFRβ kinase assay (radiometric); type: biochemical; details: bound
Sequence of PDGFRβ kinase (P09619 33-1106): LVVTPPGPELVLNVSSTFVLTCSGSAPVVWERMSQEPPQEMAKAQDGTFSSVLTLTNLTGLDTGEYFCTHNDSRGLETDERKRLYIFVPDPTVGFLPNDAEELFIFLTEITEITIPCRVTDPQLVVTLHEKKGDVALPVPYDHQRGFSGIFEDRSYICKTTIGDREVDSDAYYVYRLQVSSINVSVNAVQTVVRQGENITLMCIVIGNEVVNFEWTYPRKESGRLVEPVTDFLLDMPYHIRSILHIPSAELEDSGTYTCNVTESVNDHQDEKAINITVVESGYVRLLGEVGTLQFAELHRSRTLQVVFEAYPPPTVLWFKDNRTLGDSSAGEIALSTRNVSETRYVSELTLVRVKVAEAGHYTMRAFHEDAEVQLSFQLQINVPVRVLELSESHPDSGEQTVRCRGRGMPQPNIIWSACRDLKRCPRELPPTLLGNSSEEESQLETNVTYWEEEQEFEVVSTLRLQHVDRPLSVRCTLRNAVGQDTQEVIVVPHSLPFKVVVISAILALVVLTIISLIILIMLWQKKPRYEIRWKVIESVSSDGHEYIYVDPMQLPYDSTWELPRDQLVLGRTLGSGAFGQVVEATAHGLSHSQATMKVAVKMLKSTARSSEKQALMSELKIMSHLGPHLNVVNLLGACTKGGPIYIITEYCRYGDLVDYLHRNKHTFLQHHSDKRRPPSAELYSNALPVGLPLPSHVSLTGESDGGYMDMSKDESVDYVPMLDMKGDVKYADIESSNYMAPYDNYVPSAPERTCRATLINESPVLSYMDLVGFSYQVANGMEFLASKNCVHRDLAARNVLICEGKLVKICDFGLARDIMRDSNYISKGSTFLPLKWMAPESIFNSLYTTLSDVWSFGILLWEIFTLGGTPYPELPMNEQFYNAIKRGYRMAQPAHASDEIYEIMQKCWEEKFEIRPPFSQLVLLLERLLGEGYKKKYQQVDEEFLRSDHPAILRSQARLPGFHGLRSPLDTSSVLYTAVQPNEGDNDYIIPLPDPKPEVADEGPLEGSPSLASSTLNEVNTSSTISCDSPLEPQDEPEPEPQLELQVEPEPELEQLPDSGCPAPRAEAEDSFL
Procedure, shortened: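 Radiometric assay: recombinant PDGFRβ with poly(Glu4:Tyr1) in MOPS pH 7.0 buffer containing Mg2+/Mn2+, 10 μM ATP plus [33P]-ATP, and compound at 4% DMSO final. Incubated 60 min at 30° C, stopped with phosphoric acid, filter-captured and scintillation-counted. IC50 from curve fitting.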

[1] = test system: CSF-1-dependent M-NFS-60 mouse myeloid leukemia cell; assay: M-NFS-60 cell proliferation assay (CellTiter-96); type: cell-based; details: Cytotoxicity, M-NFS-60 cells, 72 hours
Description: (§1) Inhibition of cell growth by compounds was measured using CellTiter™-96 assay. The cytotoxicity of compounds was evaluated in CSF-1-dependent M-NFS-60 mouse myeloid leukemia cell, FLT3 signal addicted MV4-11 human acute myeloid leukemia cell with FLT3-ITD mutation, c-KIT signal addicted Kasumi-1 human acute myeloid leukemia cell with c-KIT N822K activating mutation, and THP-1 human acute monocytic leukemia cell harboring NRAS G12D mutation.
The compounds disclosed herein were tested in M-NFS-60 cell proliferation assay to determine their cellular potency against CSF-1R. […] Inhibition of CSF-1R kinase activity will cause reduced growth and/or cell death. […] Cells were allowed to expand until reaching saturation at which point they were subcultured or harvested for assay use.
(§2) M-NFS-60, Kasumi-1, MV4-11 and THP-1 cells were seeded into 96-well plates at 2000, 64000, 6500, and 5000 cells/well, respectively, and incubated at 37° C., 5% CO2 overnight. Then, these seeded cells were treated with increasing concentrations of the test compounds and incubated for another 72 hours. At the end of the incubation, CellTiter96® AQueous One Solution Reagent (Promega) was added and incubated for 4 hours. Cell viability was determined by measuring absorbance at 490 nm using EMax® microplate reader (Molecular Devices).

[2] = test system: MV4-11 human acute myeloid leukemia cell with FLT3-ITD mutation; assay: MV4-11 cell proliferation assay (CellTiter-96); type: cell-based; details: Cytotoxicity, MV4-11 cells, 72 hours
Description: as §1
(§3) The compounds disclosed herein were tested in MV4-11 cell proliferation assay to determine their cellular potency against FLT3 kinase. MV4-11 human acute myeloid leukemia cells harbor ligand-independent FLT3-ITD activating mutation, which render its proliferation FLT3-ITD dependent. Inhibition of FLT3 kinase activity will cause reduced growth and/or cell death. […] Cells were allowed to expand until reaching saturation at which point they were subcultured or harvested for assay use.
as §2

[3] = test system: Kasumi-1 human acute myeloid leukemia cell with c-KIT N822K activating mutation; assay: Kasumi-1 cell proliferation assay (CellTiter-96); type: cell-based; details: Cytotoxicity, Kasumi-1 cells, 72 hours
Description: as §1
as §3, with “Kasumi” for “MV4-11”, “c-KIT” for “FLT3”, “N822K c-KIT” for “FLT3-ITD”, “thus the cell” for “which render its”, “relied on c-KIT signal.” for “FLT3-ITD dependent.”
as §2

[4] = test system: THP-1 human acute monocytic leukemia cell harboring NRAS G12D mutation; assay: THP-1 cell proliferation assay (counter screen, CellTiter-96); type: cell-based; details: Cytotoxicity, THP-1 cells (counter screen), 72 hours
Description: as §1
THP-1 human acute monocytic leukemia cells harbor NRAS G12D mutation, which renders cell proliferate independently of class III RTKs signal. […] Cells were allowed to expand until reaching saturation at which point they were subcultured or harvested for assay use.
as §2

Sequence of CSF-1R kinase (P07333 20-972): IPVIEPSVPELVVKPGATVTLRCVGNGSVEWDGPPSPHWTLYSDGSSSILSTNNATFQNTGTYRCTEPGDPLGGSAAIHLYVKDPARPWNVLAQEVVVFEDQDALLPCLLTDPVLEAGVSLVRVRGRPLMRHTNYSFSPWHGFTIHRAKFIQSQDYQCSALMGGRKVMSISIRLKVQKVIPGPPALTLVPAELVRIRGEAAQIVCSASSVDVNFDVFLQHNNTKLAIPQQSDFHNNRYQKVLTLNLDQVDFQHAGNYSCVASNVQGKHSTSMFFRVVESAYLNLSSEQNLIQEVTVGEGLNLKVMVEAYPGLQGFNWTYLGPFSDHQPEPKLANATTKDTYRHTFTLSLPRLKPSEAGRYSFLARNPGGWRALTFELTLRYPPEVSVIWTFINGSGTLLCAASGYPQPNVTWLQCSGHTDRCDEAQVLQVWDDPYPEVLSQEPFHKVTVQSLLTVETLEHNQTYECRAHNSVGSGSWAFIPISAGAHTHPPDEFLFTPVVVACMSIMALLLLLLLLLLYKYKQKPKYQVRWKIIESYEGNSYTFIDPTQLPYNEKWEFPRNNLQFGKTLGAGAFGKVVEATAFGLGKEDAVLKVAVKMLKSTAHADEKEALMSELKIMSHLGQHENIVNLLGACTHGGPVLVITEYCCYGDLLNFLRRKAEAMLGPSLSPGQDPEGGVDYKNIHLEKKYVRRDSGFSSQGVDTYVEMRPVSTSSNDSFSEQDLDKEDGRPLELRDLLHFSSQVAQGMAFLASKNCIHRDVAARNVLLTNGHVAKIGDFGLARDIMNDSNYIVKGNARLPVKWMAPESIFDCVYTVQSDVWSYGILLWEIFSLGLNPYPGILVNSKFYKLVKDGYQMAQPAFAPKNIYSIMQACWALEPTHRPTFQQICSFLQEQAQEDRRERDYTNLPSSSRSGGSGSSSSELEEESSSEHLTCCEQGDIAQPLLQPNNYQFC

SMILES	IC50 (CSF-1R kinase; bound) [nM]	IC50 (c-KIT kinase; class symbol) [nM]	IC50 (FLT3 kinase) [nM]	IC50 (PDGFRβ kinase) [nM]	IC50 (CSF-1R kinase; class symbol) [nM]	IC50 (c-KIT kinase; bound) [nM]	IC50 [1] [nM]	IC50 [2] [nM]	IC50 [3] [nM]	IC50 [4] [nM]
C#CCOc1ccc(Nc2ccc3ncc(N4CCOCC4)nc3c2C#N)cc1OC [Example 92, 6-((3-methoxy-4-(prop-2-yn-1-yloxy)phenyl)amino)-3-morpholinoquinoxaline-5-carbonitrile]		100 to 300	> 1000	> 1000	300 to 1000		1000 to 10000	1000 to 10000	300 to 1000	> 10000
COc1cc(Nc2ccc3ncc(N4CCOCC4)nc3c2C#N)ccc1OCc1ccco1 [Example 122, 6-((4-(furan-2-ylmethoxy)-3-methoxyphenyl)amino)-3-morpholinoquinoxaline-5-carbonitrile]		< 100	> 1000	> 1000	100 to 300		1000 to 10000	1000 to 10000	300 to 1000	> 10000
COc1ccc(COc2ccc(Nc3ccc4ncc(OC)nc4c3)cc2OC)cc1 [Example 5, 3-methoxy-N-(3-methoxy-4-((4-methoxybenzyl)oxy)phenyl)quinoxalin-6-amine]			> 1000	> 1000	100 to 300	> 1000	1000 to 10000	1000 to 10000	1000 to 10000	> 10000
COc1cc(Nc2ccc3ncc(N4CCOCC4)nc3c2C#N)ccc1OCc1cnccn1 [Example 51, 6-((3-methoxy-4-(pyrazin-2-ylmethoxy)phenyl)amino)-3-morpholinoquinoxaline-5-carbonitrile]	> 1000	< 100	> 1000	> 1000			> 10000	> 10000	300 to 1000	> 10000
COc1ccc(COc2ccc(Nc3ccc4ncc(OCCN(C)C)nc4c3C#N)cc2OC)cc1 [Example 13, 3-(2-(dimethylamino)ethoxy)-6-((3-methoxy-4-((4-methoxybenzyl)oxy)phenyl)amino)quinoxaline-5-carbonitrile]		300 to 1000	> 1000	> 1000	100 to 300		1000 to 10000	1000 to 10000	1000 to 10000	1000 to 10000

More lines, main results first:

IC50 (CSF-1R kinase; bound) [nM]	IC50 (c-KIT kinase; class symbol) [nM]	IC50 (FLT3 kinase) [nM]	IC50 (PDGFRβ kinase) [nM]	IC50 (CSF-1R kinase; class symbol) [nM]	IC50 (c-KIT kinase; bound) [nM]	SMILES	IC50 [1] [nM]	IC50 [2] [nM]	IC50 [3] [nM]	IC50 [4] [nM]
> 1000	300 to 1000	> 1000	> 1000			COc1cc(Nc2ccc3ncc(N4CCOCC4)nc3c2C#N)ccc1OCC1CCCO1 (centres unmarked) [Example 123, 6-((3-methoxy-4-((tetrahydrofuran-2-yl)methoxy)phenyl)amino)-3-morpholinoquinoxaline-5-carbonitrile]	> 10000	1000 to 10000	1000 to 10000	> 10000
	100 to 300	> 1000	> 1000	300 to 1000		COc1cc(Nc2ccc3ncc(N4CCOCC4)nc3c2C#N)ccc1OCc1ccncc1 [Example 46, 6-((3-methoxy-4-(pyridin-4-ylmethoxy)phenyl)amino)-3-morpholinoquinoxaline-5-carbonitrile]	1000 to 10000	1000 to 10000	1000 to 10000	> 10000
